Data as given in PMC6394990, “Detailed characterization of the solution kinetics and thermodynamics of biotin, biocytin and HABA binding to avidin and streptavidin” (PLoS ONE, 2019).
Values joined by “and” are separate entries in the source; they are usually repeats but may differ in a detail not shown here. Equal entries are not always repeated. Where two headings read alike, the source gives them in different places.

Tests used:
[1] = target: T1, streptavidin (SAV) (Streptomyces avidinii, UniProt P22629); experiment: Stopped-flow association kinetics of dye-labeled biotin probes binding to streptavidin (F(t), rF(t); Arrhenius plots/global fitting); set-up: kcal/mol (from Arrhenius slope) / Eon for BFl: unit not given here; conditions: for halftime of association, F¯(t): probe 20 nM
T1 construct: purchased Sigma Aldrich (St. Louis, MO)
Protocol: These reactions were carried out in a buffered solution of 10 mM Tris-HCl, 100 mM KCl, 2.5 mM MgCl2 and 1 mM CaCl2 at pH 8 and only AV-BcO reactions included pH 9 and 10. […] The deglycosylation of AV (for comparative association reactions) was carried out using the provided standard protocol with endoglycosidase H [47], both with and without incubation of a denaturant solution (2% SDS and 1M 2-mercaptoethanol).
The reactions were collected with the SF instrument, described previously. […] The AC(t) and DC(t) data were baseline corrected before obtaining the signal ratio (Eq 4) as a function of time (ρt).
The constant AGain is the instrumental amplitude gain and was evaluated by solving ρ(t) using the known steady state anisotropy (rss) of the complexes which is equivalent to the r(t) at t = ∞; and H, obtained from the equivalent grating factor (G) for the filters and photo multiplier tubes in the SF. For the probes used in here G was 0.82 and H = (1-G)/(1+G) = 0.099. Knowing Again and H, the AC(t) and DC(t) signals can be solved for r(t) and F(t) (Eqs 4 and 5) and the normalized fluorescence, F¯(t) , and corrected fluorescence anisotropy, rF¯(t), were obtained when F¯(0) and rF¯(0) were scaled to 1 at t = 0.
The F¯(t) (Eq 6) is equivalent to (I||) + 2 (I⊥) and proportional to quantum yield (QYi), molar absorptivity (εi) and to the formation or disappearance of the emitting species Xi(t); and rF¯(t) including the steady state anisotropies (rss) of each fluorescent species (Eq 7).
The possible reaction models were discriminated by the squared residuals of the observed and calculated association traces of both fluorescence and anisotropy fluorescence signals, F¯(t) and rF¯(t) , respectively.

[2] = target: T1, streptavidin (SAV); experiment: Steady-state anisotropy (rss), SAV complex; assay type: physicochemical
Protocol: (§1) The lifetimes (τ), steady state anisotropies (rss), time-resolved anisotropies (rt) and quantum yields (QY) of the complexes (at 20 ± 0.1°C and pH 8) were collected with a dye-labeled B7 probe concentration of 20–40 nM and 1040–2080 nM of either protein (AV or SAV) to ensure that only one binding site in the tetramer was filled with a ligand (AB1 filling model).
The rss measurements were collected using the Giblin-Parkhurst modification of the Wampler-Desa method as described previously. The fluorescence signal was detected in a model A-1010 Alphascan fluorimeter (Photon Technologies, Inc., Birmingham, NJ) equipped with an R928 PMT (Hamamatsu, Bridgewater, NJ). The excitation was provided by an Ar^+ ion laser (Coherent Innova 70–4 Argon, Santa Clara, CA) at 488 nm and 5–10 mW of power incident on the sample. A photoelastic modulator (PEM-80; HINDS International, Inc., Portland, OR) was placed between the laser source and the sample compartment with a retardation level of 1.22π, and the PEM stress axis orientated 45° with respect to the E vector of the laser beam. Two signals were acquired with the PEM alternating between “on” and “off” positions for 10 seconds and the data fitted to a least squared straight line to minimize noise. A minimum of six of these independent measurements were averaged to acquire the rss values. The fluorimeter G factor was determined using a film polarizer and analyzer with an excitation at 488 nm provided by a xenon arc lamp (model A1010, Photon Technologies Inc, Princeton, NJ). The dissociation reactions of dye-labeled B7 and protein complexes were monitored by fluorescence changes and were also collected in the fluorimeter described above.

[3] = Fluorescence lifetimes, unbound probe; assay type: physicochemical; conditions: unbound dye; t for BFl and BcO, average lifetime for B-DNAds*Fl; in ns
Protocol: as §1
The lifetimes were collected in a FluoTime100 fluorescence spectrometer (PicoQuant, GmbH, Berlin, Germany) with the excitation light source provided by a picosecond pulsed diode laser (PicoQuant, GmbH, Berlin, Germany) at 470 nm and 20 MHz. The emission was collected at 520 nm through a non-fluorescing 520 nm interference filter (Oriel Corp., Stratford, CT) followed by a liquid filter of 1cm path length containing 24 mM acetate buffered dichromate at pH 4, between the sample and detector to eliminate traces of excitation light. The fluorescence decays were fit by a nonlinear least-squares minimization based on the Marquardt algorithm embedded in the Fluofit software (PicoQuant GmbH). […] The PicoQuant G factor was calculated according to: G = ∫HV(t)dt/∫HH(t)dt, where HV(t) and HH(t) were the decays collected with the emission polarizer selecting vertical and horizontal E-vector passing orientations, respectively, and the excitation polarizer set at horizontally position.

[4] = Quantum yields (QY), unbound probe; assay type: physicochemical; conditions: unbound dye
Protocol: as §1
The QY values were obtained by using a reference fluorophore of known quantum yield and were calculated according to Parker and Rees, where the reference dye was fluorescein in 0.1N sodium hydroxide solution [46]. The emission fluorescence scans were collected from 480 nm to 700 nm with the excitation light set at 460 nm provided by the xenon arc lamp described above. These measurements were made on the AB1 complexes at high protein concentration.

[5] = SAV, average over the dye-labeled B7 probes, used for SAV-B7
[6] = SAV, average over the dye-labeled B7 probes, used for SAV-B7, listed as B

T1 sequence (P22629 25-183): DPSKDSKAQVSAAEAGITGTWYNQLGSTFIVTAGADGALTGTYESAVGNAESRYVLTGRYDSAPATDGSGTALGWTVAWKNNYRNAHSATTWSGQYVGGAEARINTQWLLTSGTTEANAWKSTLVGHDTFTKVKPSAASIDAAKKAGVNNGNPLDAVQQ

With `O=C(O)CCCC[C@@H]1SC[C@@H]2NC(=O)N[C@@H]21` [B7, d-biotin] the “Eaon + (-∆H°)” value ([1]; SAV-B) was 30.9 ± 2.5 kcal/mol, the “∆G°ǂ + (-∆G°)” value ([1]; SAV-B) was 22.2 ± 1.0 kcal/mol and the “∆S°ǂ + (-∆S°)” value ([1]; SAV-B) was 27.7 ± 2.0 cal/mol°K. For the same molecule, the “ΔE = Ea^Forward-Ea^Backward” value ([1]; SAV-B7, column 3 minus 4) was -23.4 ± 4.0 kcal/mol, the “ΔG° ^ǂ, Forward -ΔG° ^ǂ, Backward” value ([1]; SAV-B7, column 3 minus 4) was -19.6 ± 2.5 kcal/mol and the “ΔS° ^ǂ, Forward -ΔS° ^ǂ, Backward” value ([1]; SAV-B7, column 3 minus 4) was -18.1 ± 4.5 cal/mol°K. The “fold slower than 10^9 M^-1s^-1 (diffusion limited)” value ([1]; SAV, 25°C) was 13-400 X, the “ΔG^ǂ, Forward” value [1, 5] was 4.0 ± 0.6 kcal/mol and 4.0 kcal/mol and the “ΔS^ǂ, Forward” value [1, 5] was 6.7 ± 1.6 cal/°K·mol and 6.7 cal/°K·mol. For the same molecule, the “Ea^Forward” value [1, 6] was 6.0 ± 1.0 kcal/mol and the “ΔS^ǂ, Forward” value [1, 6] was 6.7 ± 2.0 cal/°K·mol.
For `O=C(CCCC[C@@H]1SC[C@@H]2NC(=O)N[C@@H]21)NCCNC(=O)c1ccc(-c2c3ccc(=O)cc-3oc3cc(O)ccc23)c(C(=O)O)c1` [BFl, Biotin-4-fluorescein], the “Steady State Anisotropy rss” value ([2]; SAV complex (AB1), 20°C) was 0.171 ± 0.008, the “SAV-increment (%)” value ([2]; increase of rss against unbound) was 714.3% and the “rss, + SAV” value ([2]; steady-state anisotropy) was 0.171. For the same molecule, the “t (1), fluorescence lifetime” value [3] was 4.03 ± 0.01, the “kon binding to SAV, fold faster than binding to AV” value ([1]; 25°C) was 4 X and the “Eon for BFl” value ([1]; Enthalpy block, SAV) was 6.0. For the same molecule, the “kon by corrected fluorescence anisotropy rF(t)” value ([1]; SAV-BFl, 10 °C, 200 nM) was 3.75e+07 ± 1.2e+06 M⁻¹ s⁻¹, the kon ([1]; SAV-BFl, 10 °C, 200 nM, read-out: kon by corrected fluorescence anisotropy rF(t)) was 3.75e+07 M⁻¹ s⁻¹ and the kon ([1]; SAV-BFl, 10 °C, 200 nM, read-out: kon by fluorescence change F(t)) was 3.73e+07 M⁻¹ s⁻¹. The kon ([1]; SAV-BFl, 10 °C, read-out: kon, Average) was 3.74e+07 M⁻¹ s⁻¹, the “kon by corrected fluorescence anisotropy rF(t)” value ([1]; SAV-BFl, 15 °C, 200 nM) was 4.5e+07 ± 1e+06 M⁻¹ s⁻¹ and the kon ([1]; SAV-BFl, 15 °C, 200 nM, read-out: kon by corrected fluorescence anisotropy rF(t)) was 4.5e+07 M⁻¹ s⁻¹. The kon ([1]; SAV-BFl, 15 °C, 200 nM, read-out: kon by fluorescence change F(t)) was 4.48e+07 M⁻¹ s⁻¹, the “kon by corrected fluorescence anisotropy rF(t)” value ([1]; SAV-BFl, 15 °C, 400 nM) was 4.5e+07 ± 1.7e+06 M⁻¹ s⁻¹ and the kon ([1]; SAV-BFl, 15 °C, 400 nM, read-out: kon by corrected fluorescence anisotropy rF(t)) was 4.5e+07 M⁻¹ s⁻¹. For the same molecule, the kon ([1]; SAV-BFl, 15 °C, 400 nM, read-out: kon by fluorescence change F(t)) was 4.59e+07 M⁻¹ s⁻¹, the “kon by corrected fluorescence anisotropy rF(t)” value ([1]; SAV-BFl, 15 °C, 800 nM) was 4.38e+07 ± 1.9e+06 M⁻¹ s⁻¹ and the kon ([1]; SAV-BFl, 15 °C, 800 nM, read-out: kon by corrected fluorescence anisotropy rF(t)) was 4.38e+07 M⁻¹ s⁻¹. For the same molecule, the kon ([1]; SAV-BFl, 15 °C, 800 nM, read-out: kon by fluorescence change F(t)) was 4.2e+07 M⁻¹ s⁻¹, the kon ([1]; SAV-BFl, 15 °C, read-out: kon, Average) was 4.44e+07 M⁻¹ s⁻¹ and the “kon by corrected fluorescence anisotropy rF(t)” value ([1]; SAV-BFl, 20 °C, 200 nM) was 6.25e+07 ± 1.6e+06 M⁻¹ s⁻¹. The kon ([1]; SAV-BFl, 20 °C, 200 nM, read-out: kon by corrected fluorescence anisotropy rF(t)) was 6.25e+07 M⁻¹ s⁻¹, the kon ([1]; SAV-BFl, 20 °C, 200 nM, read-out: kon by fluorescence change F(t)) was 6.23e+07 M⁻¹ s⁻¹ and the kon ([1]; SAV-BFl, 20 °C, read-out: kon, Average) was 6.24e+07 M⁻¹ s⁻¹. For the same molecule, the “kon by corrected fluorescence anisotropy rF(t)” value ([1]; SAV-BFl, 25 °C, 200 nM) was 7.4e+07 ± 2e+06 M⁻¹ s⁻¹, the kon ([1]; SAV-BFl, 25 °C, 200 nM, read-out: kon by corrected fluorescence anisotropy rF(t)) was 7.4e+07 M⁻¹ s⁻¹ and the kon ([1]; SAV-BFl, 25 °C, 200 nM, read-out: kon by fluorescence change F(t)) was 7.54e+07 M⁻¹ s⁻¹. For the same molecule, the kon ([1]; SAV-BFl, 25 °C, read-out: kon, Average) was 7.47e+07 M⁻¹ s⁻¹, the kon ([1]; SAV, 4°C, calculated by an Arrhenius plot, read-out: kon) was 2.6e+07 M⁻¹ s⁻¹ and the “ln(k)” value ([1]; SAV, 10 (283.15 K)) was 17.6. For the same molecule, the “k(average)” value ([1]; SAV, 10 (283.15 K), k (full value)) was 4.55E+07, the “k(average)” value ([1]; SAV, 10 (283.15 K), k (scaled)) was 45.5 and the “ln(k)” value ([1]; SAV, 15 (288.15 K)) was 17.8. The “k(average)” value ([1]; SAV, 15 (288.15 K), k (full value)) was 5.31E+07, the “k(average)” value ([1]; SAV, 15 (288.15 K), k (scaled)) was 53.1 and the “ln(k)” value ([1]; SAV, 20 (293.15 K)) was 17.9. For the same molecule, the “k(average)” value ([1]; SAV, 20 (293.15 K), k (scaled)) was 58.6, the “ln(k)” value ([1]; SAV, 25 (298.15 K)) was 18.1 and the “k(average)” value ([1]; SAV, 25 (298.15 K), k (full value)) was 7.47E+07. For the same molecule, the “k(average)” value ([1]; SAV, 25 (298.15 K), k (scaled)) was 74.7, the kon ([1]; SAV, 25°C and pH 8) was 7.5 ± 0.2 x 10^7 M^-1s^-1 and the “Ea^Forward” value ([1]; SAV, pH 8) was 5.3 ± 0.3 kcal/mol. The “ΔG^ǂ” value ([1]; SAV, pH 8, forward) was 3.3 ± 0.6 kcal/mol, the “ΔS^ǂ” value ([1]; SAV, pH 8, forward) was 6.6 ± 0.5 cal/°K·mol and the “kcal/mol (from Arrhenius slope)” value ([1]; SAV, ph8) was -8101. For the same molecule, the “slope (Arrhenius linear fit)” value ([1]; SAV, ph8) was -4076.8, the kon ([1]; pH 8, SAV, 25°C and pH 8) was roughly 7.5e+07 M⁻¹ s⁻¹ and the kon ([1]; pH 8, SAV, pH 8, 10°C, read-out: kon) was 4.54e+07 ± 1e+06 M⁻¹ s⁻¹. It also gave a kon ([1]; pH 8, SAV, pH 8, 15°C, read-out: kon) of 5.31e+07 ± 2e+06 M⁻¹ s⁻¹, a kon ([1]; pH 8, SAV, pH 8, 20°C, read-out: kon) of 5.86e+07 ± 1.6e+06 M⁻¹ s⁻¹ and a kon ([1]; pH 8, SAV, pH 8, 25°C, read-out: kon) of 7.47e+07 ± 2e+06 M⁻¹ s⁻¹. The “halftime of association, F¯(t)” value ([1]; SAV 200 nM, pH 8, 20°C) was 77.3 ms, the “halftime of association, F¯(t)” value ([1]; SAV 400 nM, pH 8, 20°C) was 37.7 ms and the “halftime of association, F¯(t)” value ([1]; SAV 800 nM, pH 8, 20°C) was 20.6 ms. The “488, correction, absR/abs” value [4] was 1, the QY [4] was 0.52 and 0.52 ± 0.02 and the “QY multiplied by the 488 correction absR/abs” value [4] was 0.52.
